The values that follow come from ChEMBL document CHEMBL2073908, “The effect of rifampin treatment on intestinal expression of human MRP transporters” (Am J Pathol, 2000).

Data set [1] deals with T1, ATP-binding cassette sub-family C member 2 (Homo sapiens, UniProt Q92887). Description: TP_TRANSPORTER: Immunohistochemistry in vivo, apical membrane of enterocytes. Format: functional, organism-based, Enterocyte apical membrane.
Data set [2] addresses T1, ATP-binding cassette sub-family C member 2. Description: TP_TRANSPORTER: Northern blot in vivo, apical membrane of enterocyte. Format: functional, organism-based.

T1 sequence (Q92887 whole entry): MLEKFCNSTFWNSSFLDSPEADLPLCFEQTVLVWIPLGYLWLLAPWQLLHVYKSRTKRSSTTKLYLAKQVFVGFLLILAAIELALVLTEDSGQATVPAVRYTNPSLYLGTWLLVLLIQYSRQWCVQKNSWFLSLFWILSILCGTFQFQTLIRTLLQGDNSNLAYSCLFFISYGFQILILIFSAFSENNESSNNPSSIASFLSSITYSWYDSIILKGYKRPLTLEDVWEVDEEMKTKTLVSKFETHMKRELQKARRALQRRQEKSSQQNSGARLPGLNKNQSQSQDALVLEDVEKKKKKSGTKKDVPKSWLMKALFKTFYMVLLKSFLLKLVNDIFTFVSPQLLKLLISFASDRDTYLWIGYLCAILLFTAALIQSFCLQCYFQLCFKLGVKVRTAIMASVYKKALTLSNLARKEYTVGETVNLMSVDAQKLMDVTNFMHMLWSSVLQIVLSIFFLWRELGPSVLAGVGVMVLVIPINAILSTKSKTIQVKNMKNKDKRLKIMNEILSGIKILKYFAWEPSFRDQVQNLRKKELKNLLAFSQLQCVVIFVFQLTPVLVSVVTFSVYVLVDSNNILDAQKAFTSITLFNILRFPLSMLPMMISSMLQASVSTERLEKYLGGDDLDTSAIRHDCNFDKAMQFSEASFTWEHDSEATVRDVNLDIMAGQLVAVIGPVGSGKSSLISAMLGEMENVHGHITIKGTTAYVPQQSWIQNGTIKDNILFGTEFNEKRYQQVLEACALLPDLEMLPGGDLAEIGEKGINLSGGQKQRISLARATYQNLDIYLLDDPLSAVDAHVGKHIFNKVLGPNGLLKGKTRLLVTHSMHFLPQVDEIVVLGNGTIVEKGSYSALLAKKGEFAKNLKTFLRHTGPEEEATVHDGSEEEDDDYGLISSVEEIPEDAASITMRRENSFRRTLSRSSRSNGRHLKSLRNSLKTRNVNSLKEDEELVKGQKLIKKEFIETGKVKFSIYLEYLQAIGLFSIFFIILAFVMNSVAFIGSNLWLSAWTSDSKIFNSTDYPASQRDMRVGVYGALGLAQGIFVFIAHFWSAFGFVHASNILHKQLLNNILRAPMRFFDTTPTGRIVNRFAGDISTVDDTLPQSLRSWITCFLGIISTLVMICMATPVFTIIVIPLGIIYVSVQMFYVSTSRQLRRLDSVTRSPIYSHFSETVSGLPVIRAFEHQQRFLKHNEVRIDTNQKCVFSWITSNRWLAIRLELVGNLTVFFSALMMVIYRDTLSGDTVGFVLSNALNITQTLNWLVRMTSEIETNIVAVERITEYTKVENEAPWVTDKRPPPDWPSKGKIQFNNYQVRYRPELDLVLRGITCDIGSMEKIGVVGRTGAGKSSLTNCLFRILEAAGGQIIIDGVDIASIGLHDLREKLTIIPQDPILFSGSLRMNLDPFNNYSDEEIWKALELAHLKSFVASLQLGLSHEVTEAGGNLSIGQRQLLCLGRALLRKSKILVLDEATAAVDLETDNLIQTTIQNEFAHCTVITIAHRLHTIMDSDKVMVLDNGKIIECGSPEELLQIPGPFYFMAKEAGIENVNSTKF

As for `CO[C@H]1/C=C/O[C@@]2(C)Oc3c(C)c(O)c4c(O)c(c(/C=N/N5CCN(C)CC5)c(O)c4c3C2=O)NC(=O)/C(C)=C\C=C\[C@H](C)[C@H](O)[C@@H](C)[C@@H](O)[C@@H](C)[C@H](OC(C)=O)[C@@H]1C` [RIFAMPIN], the Activity entry in data set [1] and in data set [2] was “inducer [+]” throughout.
